The results in this text go back to ChEMBL document CHEMBL4043275, “Design, synthesis and biological evaluation of phthalimide-alkylamine derivatives as balanced multifunctional cholinesterase and monoamine oxidase-B inhibitors for the treatment of Alzheimer's disease” (Bioorg Med Chem Lett, 2017).

For test [1], the target named is Acetylcholinesterase (Electrophorus electricus, UniProt O42275). Kind of test: Inhibition of electric eel AChE using acetylthiocholine chloride as substrate incubated for 15 mins by Ellman's method. Background: Ellman's reagent forms a yellow product with free thiols.
Chain of Acetylcholinesterase (Electrophorus electricus, UniProt O42275) (O42275 whole entry): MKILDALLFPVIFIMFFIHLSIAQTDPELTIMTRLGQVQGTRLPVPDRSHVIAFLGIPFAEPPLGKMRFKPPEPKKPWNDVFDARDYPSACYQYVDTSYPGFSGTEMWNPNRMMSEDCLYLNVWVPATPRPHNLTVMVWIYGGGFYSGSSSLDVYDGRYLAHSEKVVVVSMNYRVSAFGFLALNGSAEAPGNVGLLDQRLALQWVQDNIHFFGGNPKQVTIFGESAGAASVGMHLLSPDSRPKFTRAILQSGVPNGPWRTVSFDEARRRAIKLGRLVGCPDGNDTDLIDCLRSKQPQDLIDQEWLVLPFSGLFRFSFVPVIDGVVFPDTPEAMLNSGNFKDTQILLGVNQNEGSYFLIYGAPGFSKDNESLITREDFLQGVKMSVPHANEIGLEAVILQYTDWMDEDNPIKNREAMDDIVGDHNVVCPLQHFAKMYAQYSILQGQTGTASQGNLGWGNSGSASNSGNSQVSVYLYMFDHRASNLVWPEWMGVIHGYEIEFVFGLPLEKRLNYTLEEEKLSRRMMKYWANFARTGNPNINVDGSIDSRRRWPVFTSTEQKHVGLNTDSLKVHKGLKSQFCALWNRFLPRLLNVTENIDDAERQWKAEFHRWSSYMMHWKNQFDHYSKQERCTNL
The target in test [2] is Cholinesterase (Equus caballus, UniProt P81908). Kind of test: Inhibition of equine serum BChE using butyrylthiocholine chloride as substrate incubated for 15 mins by Ellman's method.
Chain of Cholinesterase (P81908 whole entry): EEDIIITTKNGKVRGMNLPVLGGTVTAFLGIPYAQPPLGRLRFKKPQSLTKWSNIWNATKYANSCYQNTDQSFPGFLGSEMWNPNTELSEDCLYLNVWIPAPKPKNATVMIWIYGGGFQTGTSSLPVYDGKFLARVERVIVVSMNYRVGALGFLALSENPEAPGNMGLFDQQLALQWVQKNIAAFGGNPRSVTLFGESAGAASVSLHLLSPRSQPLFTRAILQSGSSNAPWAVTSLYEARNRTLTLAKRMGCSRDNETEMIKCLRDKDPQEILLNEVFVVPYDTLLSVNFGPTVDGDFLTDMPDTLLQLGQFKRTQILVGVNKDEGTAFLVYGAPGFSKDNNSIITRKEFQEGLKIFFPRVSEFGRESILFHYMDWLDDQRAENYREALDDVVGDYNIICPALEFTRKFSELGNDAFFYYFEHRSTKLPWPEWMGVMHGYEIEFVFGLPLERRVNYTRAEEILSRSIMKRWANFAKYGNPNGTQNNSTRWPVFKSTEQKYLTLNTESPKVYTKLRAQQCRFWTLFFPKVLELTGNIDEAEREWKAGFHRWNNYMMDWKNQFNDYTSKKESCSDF
Test [3] in a line: Selectivity index, ratio of IC50 for equine serum BChE to IC50 for electric eel AChE.
Test [4] addresses T1, Acetylcholinesterase (Rattus norvegicus, UniProt P37136).
T1 sequence (P37136 whole entry): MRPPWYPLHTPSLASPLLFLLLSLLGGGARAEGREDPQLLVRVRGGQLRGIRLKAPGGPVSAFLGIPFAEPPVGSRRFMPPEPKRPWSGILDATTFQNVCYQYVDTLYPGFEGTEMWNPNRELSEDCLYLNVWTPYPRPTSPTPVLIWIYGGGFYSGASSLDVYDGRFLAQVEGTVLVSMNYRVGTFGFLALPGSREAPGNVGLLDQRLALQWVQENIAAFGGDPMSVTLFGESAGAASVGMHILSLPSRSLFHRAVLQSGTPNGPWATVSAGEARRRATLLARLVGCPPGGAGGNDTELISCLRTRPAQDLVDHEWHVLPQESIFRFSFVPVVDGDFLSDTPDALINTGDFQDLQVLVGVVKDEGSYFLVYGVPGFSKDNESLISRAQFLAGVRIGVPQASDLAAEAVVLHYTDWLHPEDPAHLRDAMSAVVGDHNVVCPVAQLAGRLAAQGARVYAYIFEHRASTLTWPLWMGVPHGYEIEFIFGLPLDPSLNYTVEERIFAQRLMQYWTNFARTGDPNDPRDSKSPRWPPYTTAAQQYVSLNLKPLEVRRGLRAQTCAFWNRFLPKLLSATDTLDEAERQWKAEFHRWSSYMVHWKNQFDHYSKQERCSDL
Kind of test: Inhibition of rat cortex homogenate AChE using acetylthiocholine chloride as substrate incubated for 15 mins by Ellman's method.

For test [5], the target named is Butyrylcholinesterase (Rattus norvegicus, UniProt Q9JKC1). Kind of test: Inhibition of rat serum BChE using butyrylthiocholine chloride as substrate incubated for 15 mins by Ellman's method.
Chain of Butyrylcholinesterase (Q9JKC1 whole entry): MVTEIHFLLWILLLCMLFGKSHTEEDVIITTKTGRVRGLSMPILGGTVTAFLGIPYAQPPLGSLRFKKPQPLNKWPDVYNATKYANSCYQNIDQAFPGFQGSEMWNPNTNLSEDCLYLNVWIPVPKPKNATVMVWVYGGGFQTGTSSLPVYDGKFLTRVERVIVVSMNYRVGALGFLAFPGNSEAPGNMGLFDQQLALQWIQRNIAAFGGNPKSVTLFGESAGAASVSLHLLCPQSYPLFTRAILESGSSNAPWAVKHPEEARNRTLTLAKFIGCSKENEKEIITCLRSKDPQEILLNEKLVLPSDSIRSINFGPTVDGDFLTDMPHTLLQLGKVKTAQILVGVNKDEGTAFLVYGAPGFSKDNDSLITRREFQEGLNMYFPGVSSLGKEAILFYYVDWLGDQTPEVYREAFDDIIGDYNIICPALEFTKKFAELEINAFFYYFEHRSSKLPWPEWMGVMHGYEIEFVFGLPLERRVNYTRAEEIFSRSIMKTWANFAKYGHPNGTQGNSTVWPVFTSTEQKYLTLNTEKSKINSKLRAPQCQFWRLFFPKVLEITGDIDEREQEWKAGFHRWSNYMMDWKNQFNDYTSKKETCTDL
In test [6] the target is T2, Amine oxidase [flavin-containing] B (Homo sapiens, UniProt P27338).
T2 sequence (P27338 whole entry): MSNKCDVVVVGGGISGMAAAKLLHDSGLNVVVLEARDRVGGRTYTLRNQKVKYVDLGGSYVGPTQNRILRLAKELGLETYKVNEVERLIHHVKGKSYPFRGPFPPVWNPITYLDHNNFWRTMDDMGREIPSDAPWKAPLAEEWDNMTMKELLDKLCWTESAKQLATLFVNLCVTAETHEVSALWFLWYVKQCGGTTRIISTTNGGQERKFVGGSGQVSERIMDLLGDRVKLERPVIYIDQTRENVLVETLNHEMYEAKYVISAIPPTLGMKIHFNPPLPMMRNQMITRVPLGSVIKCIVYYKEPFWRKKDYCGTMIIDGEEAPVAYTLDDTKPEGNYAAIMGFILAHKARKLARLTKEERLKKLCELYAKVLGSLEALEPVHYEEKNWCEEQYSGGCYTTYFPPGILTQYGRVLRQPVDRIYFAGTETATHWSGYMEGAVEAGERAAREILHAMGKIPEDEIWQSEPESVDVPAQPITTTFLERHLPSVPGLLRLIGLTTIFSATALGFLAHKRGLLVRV
Kind of test: Inhibition of human recombinant MAO-B expressed in baculovirus infected BTI insect cells using kynuramine as substrate after 30 mins by fluorescence assay. In kind it is cell-based.

The target of test [7] is T3, Amine oxidase [flavin-containing] A (Homo sapiens, UniProt P21397).
T3 sequence (P21397 whole entry): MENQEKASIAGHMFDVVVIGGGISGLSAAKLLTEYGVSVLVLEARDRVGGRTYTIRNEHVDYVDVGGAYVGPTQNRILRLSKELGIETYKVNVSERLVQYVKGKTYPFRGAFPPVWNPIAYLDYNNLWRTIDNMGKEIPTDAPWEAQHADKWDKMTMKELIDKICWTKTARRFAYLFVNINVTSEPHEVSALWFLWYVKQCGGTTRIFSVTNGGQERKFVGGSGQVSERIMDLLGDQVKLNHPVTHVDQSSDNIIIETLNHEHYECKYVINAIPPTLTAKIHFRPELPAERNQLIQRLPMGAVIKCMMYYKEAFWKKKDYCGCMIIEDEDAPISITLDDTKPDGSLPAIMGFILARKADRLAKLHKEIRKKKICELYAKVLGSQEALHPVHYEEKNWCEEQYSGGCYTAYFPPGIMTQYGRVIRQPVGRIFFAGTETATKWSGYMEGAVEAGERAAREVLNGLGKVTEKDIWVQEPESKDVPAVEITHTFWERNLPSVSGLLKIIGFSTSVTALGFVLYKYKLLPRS
Kind of test: Inhibition of human recombinant MAO-A expressed in baculovirus infected BTI insect cells at 20 uM using kynuramine as substrate after 30 mins by fluorescence assay relative to control. The settings on record: 0.5 h.

Take `COc1ccccc1CN(C)CCCN1C(=O)c2ccccc2C1=O`: the IC50 in test [1] is 4.6 µM; in test [2], 3.7 µM; in test [4], 9.8 µM; in test [5] it was 27.7 µM; in test [6], 9.8 µM. Besides, the Ratio IC50 in test [3] worked out at 0.8. The inhibition at 20 µM in test [7] was below 5%.

On to `CCN(CCN1C(=O)c2ccccc2C1=O)Cc1ccccc1OC`, for which the IC50 in test [1] is 3.6 µM; in test [2], 18.3 µM; in test [4], 0.9 µM; in test [5] it was 15.9 µM; in test [6] it was 6.9 µM. Also, the Ratio IC50 in test [3] was 5.1. Also, the inhibition at 20 µM in test [7] was below 5%.

For the compound `CN(CCCCN1C(=O)c2ccccc2C1=O)Cc1ccccc1`, the IC50 in test [1] turned out to be 2.6 µM; in test [2], 14.5 µM; in test [4], 4.3 µM; in test [5], 8.4 µM; in test [6], 4.2 µM. Also, in test [3], the Ratio IC50 was found to be 5.6. Moreover, in test [7], the inhibition at 20 µM is below 5%.

Consider `COc1ccccc1CN(C)CCCCCCN1C(=O)c2ccccc2C1=O`, for which the concentration for half-maximal inhibition (IC50) in test [1] worked out at 1.1 µM; in test [2], 30.6 µM; in test [4], 0.6 µM; in test [5] it was 42.9 µM; in test [6], 11.3 µM. Further, in test [3], the Ratio IC50 is 27.8. Besides, the inhibition at 20 µM in test [7] was below 5%.

On to `C#CCN(CCCCN1C(=O)c2ccccc2C1=O)Cc1ccccc1OC`, for which the IC50 is 3.4 µM in test [1]; 8.3 µM in test [2]; 5.1 µM in test [4]; 39 µM in test [5]; 5.6 µM in test [6]. In addition, the Ratio IC50 in test [3] amounted to 2.4. Also, the inhibition at 20 µM in test [7] was below 5%.

Regarding `CN(CCN1C(=O)c2ccccc2C1=O)Cc1ccccc1`, the IC50 in test [1] came out at 15.9 µM; in test [2] it was 22.5 µM; in test [4], 16 µM; in test [5] it was 26.2 µM; in test [6], 7.3 µM. The Ratio IC50 in test [3] was 1.4. Also, the inhibition at 20 µM in test [7] was below 5%.

With `CCN(CCN1C(=O)c2ccccc2C1=O)Cc1ccccc1`, the IC50 came to 9.3 µM in test [1]; 21.9 µM in test [2]; 13.2 µM in test [4]; 16.1 µM in test [5]; 8.3 µM in test [6]. For the same compound, in test [3], the Ratio IC50 came out at 2.4. The inhibition at 20 µM in test [7] is below 5%.

Turning to `CC(C)N1CCN(CCCN2C(=O)c3ccccc3C2=O)CC1`, the IC50 in test [1] was 12.9 µM; in test [2], 34.9 µM; in test [4], 8.3 µM; in test [5], 32.9 µM; in test [6] it was 10.4 µM. In addition, the Ratio IC50 in test [3] was determined as 2.7. Further, the inhibition at 20 µM in test [7] was below 5%.

For `CC(C)N1CCN(CCCCCCN2C(=O)c3ccccc3C2=O)CC1`, the IC50 in test [1] came to 8.8 µM; in test [2] it was 19.4 µM; in test [4] it was 6.3 µM; in test [5], 27.9 µM; in test [6] it was 13.1 µM. For the same compound, in test [3], the Ratio IC50 came to 2.2. Moreover, the inhibition at 20 µM in test [7] was below 5%.

Regarding `CN(CCCCCCN1C(=O)c2ccccc2C1=O)Cc1ccccc1`, the IC50 in test [1] came out at 2.1 µM; in test [2], 17.9 µM; in test [4], 3.9 µM; in test [5], 20.7 µM; in test [6] it was 8.3 µM. Moreover, the Ratio IC50 in test [3] is 8.5. Also, in test [7], the inhibition at 20 µM was below 5%.

On to `C#CCN(CCCCCCN1C(=O)c2ccccc2C1=O)Cc1ccccc1`, for which the IC50 in test [1] amounted to 6.8 µM; in test [2] it was 7.6 µM; in test [4] it was 7.6 µM; in test [5], 16.2 µM; in test [6], 8.2 µM. Besides, the Ratio IC50 in test [3] is 1.1. Also, the inhibition at 20 µM in test [7] is below 5%.

As to `C#CCN(CCCCN1C(=O)c2ccccc2C1=O)Cc1ccccc1`, the IC50 worked out at 4.9 µM in test [1]; 12.7 µM in test [2]; 4 µM in test [4]; 32.4 µM in test [5]; 6.5 µM in test [6]. In test [3], the Ratio IC50 was 2.6. For the same compound, the inhibition at 20 µM in test [7] was below 5%.

What is called IC50 is the midpoint of a concentration-inhibition curve. What is called inhibition is the share of the control response that was lost under treatment.
